According to patent US10918626B2, “Method for improving pharmacokinetics” (Roche Palo Alto LLC, priority 2009, dated 2021):
pIC50: −log10 of the molar value. Where two headings read alike, the source gives them in different places.

Key:
[1] = target: recombinant CYPs (Homo sapiens, UniProt P08684); assay: metabolism by recombinant CYPs; format: in vitro ADME
Source text: (§1) Therefore, a cytochrome P450 monooxygenase inhibitor in an amount effective to inhibit metabolism of the protease inhibitor could increase the bioavailability of R7227 compared to administration in the absence of the CYP inhibitor.

[2] = SAD study in healthy volunteers; format: in vivo, human
Source text: (A. A. Mathias et al., Clin. Pharmacol. Ther. 2009 85(1)64-70).

[3] = target: T1, NS3/4A protease (Hepatitis C virus genotype 1a, UniProt P27958); assay: NS3/4A proteolysis inhibition; format: biochemical; details: read-out: 50% inhibitory concentration (IC50), NS3/4A proteolysis
T1 construct: a serine protease encoded in the NS3 region
T1 sequence (P27958 1658-1711): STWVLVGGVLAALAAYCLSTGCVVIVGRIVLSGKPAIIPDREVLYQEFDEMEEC
T1 sequence (P27958 1027-1657): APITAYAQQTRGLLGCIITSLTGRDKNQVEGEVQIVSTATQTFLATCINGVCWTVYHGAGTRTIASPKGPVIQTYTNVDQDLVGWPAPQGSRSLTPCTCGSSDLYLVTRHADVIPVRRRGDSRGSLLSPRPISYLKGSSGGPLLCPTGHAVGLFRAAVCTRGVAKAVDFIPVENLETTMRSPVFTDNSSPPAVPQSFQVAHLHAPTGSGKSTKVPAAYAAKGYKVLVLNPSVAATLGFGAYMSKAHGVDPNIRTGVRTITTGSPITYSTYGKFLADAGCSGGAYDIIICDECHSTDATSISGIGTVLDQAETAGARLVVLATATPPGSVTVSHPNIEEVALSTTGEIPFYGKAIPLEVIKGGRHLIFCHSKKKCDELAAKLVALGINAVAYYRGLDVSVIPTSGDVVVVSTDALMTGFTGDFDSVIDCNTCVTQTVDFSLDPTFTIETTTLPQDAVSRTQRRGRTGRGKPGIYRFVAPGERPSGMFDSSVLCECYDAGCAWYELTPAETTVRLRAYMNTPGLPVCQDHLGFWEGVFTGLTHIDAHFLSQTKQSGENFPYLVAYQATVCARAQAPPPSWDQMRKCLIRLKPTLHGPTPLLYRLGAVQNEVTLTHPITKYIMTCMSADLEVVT

[4] = test system: CYP isozymes; assay: cytochrome P450 phenotyping using chemical inhibitors; format: in vitro ADME
Source text: as §1

[5] = test system: genotype 1 HCV replicon; assay: cell-based potency assay employing a genotype 1 HCV replicon; details: Hepatitis C virus
[6] = Pharmacokinetic enhancement of R7227 by ritonavir in healthy adults; format: in vivo, human; details: for concentration at 12 h / Cmax / AUC(0-inf): human, plasma; for concentration at 12 h: read-out: C12 h, GLSM; for Cmax / AUC(0-inf): N 12
Experimental: Subjects were screened for participation in this study within 21 days before dosing. The study enrolled 14 healthy volunteers (n=14 per group). The dosing schedule is illustrated below: [table] […] was formulated into clear size 10 oval soft gelatin capsules for oral administration at a strength of 100 mg per capsule (anhydrous free acid equivalent). The capsule fill solution consists of […]-001, polyethylene glycol PEG400 (Macrogol 400), and butylated hydroxytoluene (BHT). All excipients are compendial grade (NF or EP). Gelatin Type 195 (NF, EP) is used as the bulk gel mass for the capsule shell, with small amounts of sorbitol liquid 85/70/00 (NF, EP) and water (USP) used as plasticizers. All study medications were with a meal. […] was administered orally as a single dose of a 100 mg soft gel capsule on days 1, 3 and 12. […] Blood samples (5 mL) were collected to determine plasma concentrations of […] (and metabolites when assays were available) according to the following schedule Day 1, PK samples (5 mL) were be collected before […] dosing (predose) and at 0.5, 1, 1.5, 2, 2.5, 3, 3.5, 4, 6, 8, 12, and 24 hours after […] dosing; Days 3 and 12, PK samples (5 mL) were collected before […] dosing (predose) and at 0.5, 1, 1.5, 2, 2.5, 3, 3.5, 4, 6, 8, 12, 24, 36, and 48 hours after […] dosing. Primary PK parameters of […] that were determined are Cmax and AUC0→∞. Secondary PK parameters of […] that were measured include Tmax and AUC0→last, CL/F, t1/2, C12 hr and C24 h. Analysis of variance (ANOVA) was applied to the log-transformed primary pharmacokinetic parameters. Two-sided 90% confidence intervals for the ratios of the geometric means of the primary parameters (AUC0→∞ and Cmax of […]) were derived for the following comparisons: […] Analysis of variance (ANOVA) was used to analyze all primary study parameters using the following model: Yij=μ+τi+sj+εij where Yij denotes the PK parameter to be analyzed, μ denotes the general mean of the transformed variable, τi, the fixed effect of treatment; sj the random effect of subject; εij (error). The random deviations εij are assumed to be independent and normally distributed with zero mean and common variance σ^2. The group comparisons τ […]+Ritonavir-τ[…], the residual variance σ^2, and the 90% confidence limits for the group comparisons were estimated from the ANOVA model. For log-transformed variables (AUC0→∞ and Cmax), the ratio of true group means and the confidence limits for the corresponding ratio of means of the untransformed variables will be calculated by exponentiation of the least squares means differences and the confidence limits for the transformed values, respectively.

[7] = test system: HCV; details: monotherapy; cited from earlier work
[8] = po, 100 mg, Day 1 (alone), R7227 100 mg single oral dose
[9] = multiple doses of ritonavir 100 mg every 12 hours

Chain of recombinant CYPs (P08684 whole entry): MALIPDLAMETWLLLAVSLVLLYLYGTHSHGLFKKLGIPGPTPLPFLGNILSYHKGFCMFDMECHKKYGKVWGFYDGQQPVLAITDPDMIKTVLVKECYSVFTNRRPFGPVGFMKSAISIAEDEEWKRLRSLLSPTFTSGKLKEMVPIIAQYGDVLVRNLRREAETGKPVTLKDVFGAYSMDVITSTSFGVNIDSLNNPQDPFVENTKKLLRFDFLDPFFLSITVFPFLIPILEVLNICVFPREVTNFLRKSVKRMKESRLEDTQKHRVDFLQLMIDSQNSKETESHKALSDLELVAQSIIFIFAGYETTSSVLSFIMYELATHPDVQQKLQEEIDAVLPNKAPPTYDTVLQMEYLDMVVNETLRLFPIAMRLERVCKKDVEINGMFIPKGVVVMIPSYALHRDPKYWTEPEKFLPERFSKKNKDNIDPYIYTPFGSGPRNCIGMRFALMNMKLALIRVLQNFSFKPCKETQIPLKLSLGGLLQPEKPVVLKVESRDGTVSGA

**Q.** Which “metabolism by recombinant CYPs” value [1] does the source give for `CC(C)(C)OC(=O)N[C@H]1CCCCC/C=C\[C@@H]2C[C@@]2(C(=O)NS(=O)(=O)C2CC2)NC(=O)[C@@H]2C[C@@H](OC(=O)N3Cc4cccc(F)c4C3)CN2C1=O` [R7227] here?
**A.** Its value is “only CYP3A4 metabolized R7227 to an extent that could influence the pharmacokinetics”.

**Q.** And the “highest safe and tolerable dose” value [2]?
**A.** Its value is 1600 mg.

**Q.** And the pIC50 [3]?
**A.** Its pIC50 is no less than 9.65.

**Q.** And the “CYP isozymes participating in metabolism” value [4]?
**A.** Its value is “multiple CYP isozymes including 3A4, 2C19, 1A2, 2D6, and 2C9 participate in the metabolism”.

**Q.** What about the pIC50 [5] of the same compound?
**A.** Its pIC50 is 8.75.

**Q.** And the “AUC0→∞, ratio of GLSM (90% CI)” value ([6]; Day 3 vs Day 1)?
**A.** Its value is 5.70 (4.07, 7.99).

**Q.** And the “Cmax, ratio of GLSM (90% CI)” value ([6]; Day 3 vs Day 1)?
**A.** The value was 3.14 (1.87, 5.25).

**Q.** And the “C12 h, ratio of GLSM (90% CI)” value ([6]; Day 3 vs Day 1, N 8, non-missing non-BLQ data)?
**A.** The value was 50.6 (25.6, 100).

**Q.** What about the “C12 h, ratio of GLSM (90% CI)” value ([6]; Day 3 vs Day 1, N 12, includes extrapolated day 1 values) of the same compound?
**A.** Its value is 65.2 (34.8, 122).

**Q.** What about the “AUC0→∞, ratio of GLSM (90% CI)” value ([6]; Day 12 vs Day 1) of the same compound?
**A.** The value was 5.50 (4.05, 7.48).

**Q.** And the “Cmax, ratio of GLSM (90% CI)” value ([6]; Day 12 vs Day 1)?
**A.** Its value is 3.25 (2.12, 4.96).

**Q.** And the “C12 h, ratio of GLSM (90% CI)” value ([6]; Day 12 vs Day 1, N 8, non-missing non-BLQ data)?
**A.** Its value is 26.9 (17.7, 41.0).

**Q.** And the “C12 h, ratio of GLSM (90% CI)” value ([6]; Day 12 vs Day 1, N 12, includes extrapolated day 1 values)?
**A.** The value was 42.4 (25.7, 70.0).

**Q.** What about the concentration at 12 h ([6]; oral, 100 mg, Day 1 (alone), N 8, non-missing non-BLQ data from all three treatment days) of the same compound?
**A.** The concentration at 12 h was 0.02 ng/mL.

**Q.** And the concentration at 12 h ([6]; oral, 100 mg, Day 1 (alone), N 12, includes extrapolated C12 h values from 4 subjects with BLQ values on day 1)?
**A.** Its concentration at 12 h is 0.01 ng/mL.

**Q.** What about the concentration at 12 h ([6]; oral, Day 3 (with ritonavir single dose), N 8, non-missing non-BLQ data) of the same compound?
**A.** The concentration at 12 h was 1 ng/mL.

**Q.** What about the Cmax ([6]; oral, Day 3 (with ritonavir single dose)) of the same compound?
**A.** Its Cmax is 26.4 ng/mL.

**Q.** What about the concentration at 12 h ([6]; oral, Day 3 (with ritonavir single dose), N 12 (set including extrapolated day 1 values)) of the same compound?
**A.** Its concentration at 12 h is 0.55 ng/mL.

**Q.** And the concentration at 12 h ([6]; oral, Day 12 (with ritonavir multiple dose), N 8, non-missing non-BLQ data)?
**A.** Its concentration at 12 h is 0.53 ng/mL.

**Q.** And the Cmax ([6]; oral, Day 12 (with ritonavir multiple dose))?
**A.** The Cmax was 27.3 ng/mL.

**Q.** And the concentration at 12 h ([6]; oral, Day 12 (with ritonavir multiple dose), N 12 (set including extrapolated day 1 values))?
**A.** Its concentration at 12 h is 0.36 ng/mL.

**Q.** And the AUC(0-inf) [6, 8]?
**A.** The AUC(0-inf) was 14.4 ng·h/mL.

**Q.** And the Cmax [6, 8]?
**A.** The Cmax was 8.4 ng/mL.

**Q.** And the AUC(0-inf) ([6]; po, 100 mg, Day 3 (with ritonavir single dose), R7227 100 mg oral)?
**A.** The AUC(0-inf) was 82 ng·h/mL.

**Q.** And the AUC(0-inf) ([6]; po, 100 mg, Day 12 (with ritonavir multiple dose), R7227 100 mg oral)?
**A.** Its AUC(0-inf) is 79.4 ng·h/mL.

**Q.** What about the “increase of R7227 AUC0→∞” value [6, 9] of the same compound?
**A.** The value was “approximately 5.5 fold”.

**Q.** What about the “increase of R7227 Cmax” value [6, 9] of the same compound?
**A.** Its value is roughly 3.25 fold.

**Q.** With `NC(=O)c1ncn([C@@H]2O[C@H](CO)[C@@H](O)[C@H]2O)n1` [ribavirin, 1-((2R,3R,4S,5R)-3,4-dihydroxy-5-hydroxymethyl-tetrahydro-furan-2-yl)-1H-[1,2,4]triazole-3-carboxylic acid amide] as the compound, how does the “patients with serum amino transferase levels reduced to normal” value [7] read?
**A.** The value was 40%.
